From patent US9161900B2, “Cosmetic composition for inhibiting hair loss and enhanced hair growth” (AMOREPACIFIC CORPORATION, priority 2011, dated 2015)

Tested on: LNCaP cells having the androgen receptor
Experiment: Androgen receptor inhibition assay (LNCaP cell viability, WST-1)
Conditions: Homo sapiens, 48 h, read-out: Cell viability (%)
Experimental: The human prostate cancer cell line LNCaP cells were acquired from the American Type Culture Collection (Manassas, Va., USA) and cultured for 24 hours in RPMI 1640 medium containing 10% fetal bovine serum (FBS) and 2 mM 1-glutamine in an incubator maintained at 5% CO2 and 37° C.
Cell viability of the cultured cells was measured using the WST-1 reagent.

SMILES: C[C@]12CCC(=O)C[C@@H]1CC[C@@H]1[C@@H]2CC[C@]2(C)[C@@H](O)CC[C@@H]12 [DHT, dihydrotestosterone]
- viability at 0.001 µM: 119%
